Measurements: PMC6530213, “Monitoring flux in signalling pathways through measurements of 4EBP1-mediated eIF4F complex assembly” (BMC Biology, 2019)

Tests used:
[1] = tested on: HEK293 cells; assay: Cell viability by intracellular ATP (CellTiter-GLO) in HEK293 cells; format: cell-based; settings: HEK293, 4-h treatment
Procedure: (§1) Either HEK293, PC-3 or PANC-1 cells were spun down at 1000 rpm for 5 min at room temperature. Supernatant was then discarded, and cells re-suspended to a density of to 220,000 cells per millilitre in Opti-MEM I cell media containing 0% FBS with no added red phenol. Then 90 μl of the cell re-suspension was added to the wells of a white opaque 96-well plate. Compounds were then titrated onto the 96-well plate using a suitable twofold dilution series from a 10× stock solution containing 10% v/v DMSO. Control wells were also treated with a 10% DMSO only stock solution to yield a final residual DMSO concentration of 1% v/v. The 96-well plates were then incubated for 4 h at 37 °C, with 5% CO2. Wells were then treated with a solution of Nano-Glo live substrate, which was prepared as per the manufacturer’s instructions. The plates were then shaken for 1 min at 22 °C and luminescence assessed after additional 50 min using an Envision Multi-Plate reader (Perkin-Elmer). Plates were then multiplexed with CellTiter-GLO 2.0 reagent (PROMEGA) and cellular viability determined according to the manufacturer’s instruction. NanoBit titration data was used to determine IC50 values for drug potency by fitting 4 parameter logistic curves using GraphPad Prism 7.0.

[2] = biological target: eIF4E-eIF4G interface; settings: published value; read-out: in vitro Kd; cited from earlier work
[3] = tested on: eIF4E:eIF4G^604–646 complex; assay: NanoBit eIF4E:eIF4G^604–646 protein complementation assay in HEK293 cells; format: cell-based; settings: for Extent of disruption of NanoBit signal / eIF4F complex: HEK293, relative to eIF4G YLL-LgBit binding control or maximal dose of Torin
Procedure: (§2) Opaque 96-well plates were seeded with 20,000 HEK293 cells per well in DMEM and 10% FCS. Transfections in 96-well plate format were performed using FUGENE6 (Roche) with 100 ng of the indicated plasmid vectors per well as outlined in the manufacturer’s instructions (Fig. 1). Twenty-four hours after transfection, the medium was replaced with 100 μl of Opti-MEM I cell media containing 0% FCS with no added red phenol (Thermo Fisher Scientific) and luminescence activity assayed (as outlined in “NanoBit and cell viability experiments” section). Transfections utilising 4EBP1 constructs were performed with either 50 ng of the indicated construct or empty vector.
(§3) Twenty-four hours prior to transfection, cells (HEK293, PANC-1 or PC-3) were seeded at a cell density of 800,000 cells per well of a six-well plate (Thermo Fisher Scientific). Transfections in six-well plates were performed using Lipofectamine 3000 (Thermo Fisher Scientific) with 3 μg of the indicated plasmid vectors per well according to the manufacturer’s instructions. For knockdown experiment, siRNA Ctrl or 4EBP1 at a final concentration of 100 nM were included in the transfection mixture. Transfections utilising GFP and GFP-MYC contained 1 μg of each vector or empty vector, respectively. In the case of transfections utilising any of the 4EBP1 constructs described, only 0.5 μg of each vector or empty vector was used, respectively. After a 24- or 48-h (as indicated in the figure legends) incubation period, the medium was removed and cells were washed with PBS saline. Cells were then either lysed directly for immunoprecipitation experiments or were trypsinised and re-suspended in Opti-MEM media with 0% FCS to perform NanoBit and cell viability experiments in a 96-well format.
as §1

[4] = tested on: full-length NanoLuc luciferase; assay: Full-length NanoLuc luciferase counter-screen in HEK293 cells; format: cell-based; settings: HEK293 transfected with full-length NanoLuc
[5] = biological target: T1, eIF4E:eIF4G^604–646 complex (Homo sapiens, UniProt P06730); assay: NanoBit eIF4E:eIF4G^604–646 protein complementation assay in HEK293 cells; format: cell-based; settings: HEK293, 4 h, normalised to DMSO and to full-length NanoLuc counter-screen; read-out: IC50, NanoBit eIF4E:eIF4G^604–646 signal
T1 construct: linked either to full-length eIF4E or the eIF4G^604–646 fragment; expressed in transfected cells; host or cells: HEK293
Procedure: as §2, §3, §1

[6] = tested on: eIF4E:eIF4G^604–646 complex; assay: NanoBit eIF4E:eIF4G^604–646 protein complementation assay in PC-3 cells; format: cell-based; settings: for Activity in NanoBit system: PC-3 cells, 4 h
Procedure: as §3, §1

[7] = tested on: eIF4E:eIF4G^604–646 complex; assay: NanoBit eIF4E:eIF4G^604–646 protein complementation assay in PANC-1 cells; format: cell-based
Procedure: as §3
as §1, with “Wells were then treated with a solution of Nano-Glo live substrate, which was prepared as per the manufacturer’s instructions.” left out, “NanoBit titration data was used to determine IC50 values for drug potency by fitting 4 parameter logistic curves using GraphPad Prism 7.0.” left out

[8] = tested on: eIF4E S209 phosphorylation; assay: AlphaScreen Surefire eIF4E S209 phosphorylation assay in PANC-1 cells; format: cell-based
Procedure: (§4) Ninety-six-well plates were seeded at 30,000 cells per well with non-transfected PC-3, PANC-1 or HKEK293 cells in DMEM with 10% FCS and incubated overnight. Cells were then washed with PBS and the media replaced with OPTI-MEM containing no serum. Cells were then treated with the indicated compounds. Controls were performed with DMSO vehicle treatments. Four hours post treatments, cells were lysed with 50 μl of passive lysis buffer (PerkinElmer) for 15 min and 10 μl of lysate from each well was transferred into a white bottom 384-well plate. GAPDH and pS209 eIF4E levels were assessed according to the manufacturer’s instructions (PerkinElmer) for each sample. Luminescence was measured using an Envision Multiplate reader (PerkinElmer).

[9] = tested on: eIF4E S209 phosphorylation; assay: AlphaScreen Surefire eIF4E S209 phosphorylation assay in PC-3 cells; format: cell-based; settings: PC3 cells, 4E-BP1 protein levels high, normalised to GAPDH, read-out: pEIF4E SureFire (IC50)
Procedure: as §4

[10] = tested on: PC-3 cells; assay: Cell viability by intracellular ATP (CellTiter-GLO) in PC-3 cells; format: cell-based; settings: NanoBit co-transfected PC-3 cells, 4 h
Procedure: as §1

[11] = HEK293, 4 h treatment, read-out: IC50, NanoBit eIF4E:eIF4G^604–646 signal

T1 sequence (P06730 2-217, one chain of several): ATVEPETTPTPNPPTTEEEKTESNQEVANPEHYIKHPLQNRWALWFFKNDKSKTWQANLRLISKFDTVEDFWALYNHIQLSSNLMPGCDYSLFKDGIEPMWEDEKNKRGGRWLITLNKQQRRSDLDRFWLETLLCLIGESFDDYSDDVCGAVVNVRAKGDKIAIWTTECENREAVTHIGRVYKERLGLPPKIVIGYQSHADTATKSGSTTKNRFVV

In the case of O=C(O)C(Cc1ccccc1[N+](=O)[O-])=NNc1nc(-c2ccc(Cl)c(Cl)c2)cs1 (mixture of isomers) [4EGi-1], the “Effect on cell viability (intracellular ATP)” value (shortened to “Effect … (intracellular ATP)”) [1] is listed as “only 4ER1Cat was observed to have an effect”, the Kd [2] is listed as 25000 nM and the “Extent of disruption of NanoBit signal / eIF4F complex” value [3] is listed as “neither achieved complete disruption of the signal”. For the same compound, the “Inhibition of full-length luciferase signal (counter-screen)” value [4] was “Non-specific inhibition of the luciferase signal”.
In the case of O=C(O)c1ccc(N2C(=O)/C(=C\c3ccc(-c4ccc([N+](=O)[O-])cc4)o3)C=C2c2ccccc2)cc1 [4E1RCat], the “Effect … (intracellular ATP)” value [1] is given as “observed to have an effect”, the Kd [2] is given as 3200 nM and the “Extent of disruption of NanoBit signal / eIF4F complex” value [3] is given as “neither achieved complete disruption of the signal”. The IC50 [5] was 600 ± 150 nM and the “Inhibition of full-length luciferase signal (counter-screen)” value [4] was “Non-specific inhibition of the luciferase signal”.
In the case of Cn1c(=O)n(-c2ccc(C(C)(C)C#N)cc2)c2c3cc(-c4cnc5ccccc5c4)ccc3ncc21 [BEZ235], the IC50 ([3]; HEK293, 4 h, read-out: apparent IC50, NanoBit eIF4E:eIF4G^604–646 signal) is reported as 8 ± 0.7 nM, the “Attenuation of potency by siRNA-mediated knockdown of 4EBP1” value ([3]; HEK293, si4EBP1 versus siCtrl) is reported as “substantially reduced” and the “Extent of disruption of NanoBit signal / eIF4F complex” value [3] is reported as “achieved maximal inhibition of eIF4F activity”. For the same compound, the “Decrease in potency on overexpression of GFP-MYC” value ([3]; HEK293 co-transfected with GFP-MYC versus GFP control) was “over an order of magnitude”, the “Effect of siRNA 4EBP1 knockdown on activity” value ([6]; PC3 cells, si4EBP1 versus siCtrl) was “strongly attenuated” and the “Activity in NanoBit system” value [6] was “mid-nanomolar range”. For the same compound, the “Activity in NanoBit system” value ([7]; 4 h) was “dramatically attenuated”.
In the case of Nc1ncnc2n[nH]c(Nc3ccc(F)cc3)c12 [CGP57380], the “Decrease in ability to prevent phosphorylation of eIF4E, PANC1 versus PC-3” value ([8]; PANC1 cells compared with PC-3) is reported as “twofold”, the IC50 ([8]; PANC cells, 4E-BP1 protein levels low, normalised to GAPDH, read-out: pEIF4E SureFire (IC50)) is reported as 6200 ± 1300 nM and the IC50 [9] is reported as 3000 ± 1700 nM. For the same compound, the “Effect on NanoBit luminescence signal in combination with Ipasertib versus Ipasertib alone” value ([3]; HEK293, CGP57380 at constant concentrations, 4 h) was “did not lead to a larger decrease of the luminescence signal”, the “NanoBit eIF4E:4G (IC50, μM)” value ([6]; PC3 cells, 4E-BP1 protein levels high) was “No Inhibition” and the “Activity in NanoBit system” value [6] was “no decrease in the luminescence signal”. For the same compound, the “Effect on cell viability” value [10] was “no decrease in the luminescence signal or decrease in cell viability” and the “NanoBit eIF4E:4G (IC50, μM)” value ([7]; 4E-BP1 protein levels low) was “No Inhibition”.
In the case of CC(C)NC[C@@H](C(=O)N1CCN(c2ncnc3c2[C@H](C)C[C@H]3O)CC1)c1ccc(Cl)cc1 [Ipasertib], the IC50 [3, 11] is reported as 170 ± 24 nM.
In the case of CC(C)n1nc(-c2cc3cc(O)ccc3[nH]2)c2c(N)ncnc21 [PP242], the “Effect … (intracellular ATP)” value [1] is reported as “neither Rapamycin, Torin nor PP242 affected the cells adversely”.
In the case of CO[C@H]1C[C@@H]2CC[C@@H](C)[C@@](O)(O2)C(=O)C(=O)N2CCCC[C@H]2C(=O)O[C@H]([C@H](C)C[C@@H]2CC[C@@H](O)[C@H](OC)C2)CC(=O)[C@H](C)/C=C(\C)[C@@H](O)[C@@H](OC)C(=O)[C@H](C)C[C@H](C)/C=C/C=C/C=C/1C [Rapamycin], the “Effect … (intracellular ATP)” value [1] is reported as “neither Rapamycin, Torin nor PP242 affected the cells adversely” and the IC50 [3, 11] is reported as 6880 ± 880 nM.
For O=C(Nc1ccc2[nH]nc(-c3ccncc3)c2c1)[C@@H]1CCN(CC(=O)N2CCN(c3ccc(-c4ncccn4)cc3)CC2)C1 [SCH772984], the IC50 [3, 11] was 2600 ± 1800 nM and the “Effect on eIF4F disruption in combination with Ipasertib titration” value ([3]; HEK293, SCH-772984 constant at 1 μM) was “additive effect”.
With CCC(=O)N1CCN(c2ccc(-n3c(=O)ccc4cnc5ccc(-c6cnc7ccccc7c6)cc5c43)cc2C(F)(F)F)CC1 [Torin] the “pEIF4E SureFire (IC50, μM)” value ([8]; PANC cells, 4E-BP1 protein levels low, normalised to GAPDH) was “No Inhibition”, the “Effect … (intracellular ATP)” value [1] was “neither Rapamycin, Torin nor PP242 affected the cells adversely” and the IC50 ([9]; Homo sapiens, PC-3) was 100 ± 20 nM. It also gave an IC50 [3, 11] of 60 ± 10 nM, an IC50 ([6]; PC3 cells, 4E-BP1 protein levels high, read-out: NanoBit eIF4E:4G (IC50)) of 20 ± 10 nM and an IC50 ([7]; 4E-BP1 protein levels low, read-out: NanoBit eIF4E:4G (IC50)) of 130 ± 30 nM.
For CC(C)Nc1cc(-c2c[nH]c(C(=O)N[C@H](CO)c3cccc(Cl)c3)c2)c(Cl)cn1 [Ulixertinib], the IC50 [3, 11] was 4700 ± 1800 nM.
